Results from PMC6332165, “Study of the Relationships between the Structure, Lipophilicity and Biological Activity of Some Thiazolyl-carbonyl-thiosemicarbazides and Thiazolyl-azoles” (Molecules, 2015).

How the values were obtained:
[1] = tested on: turpentine oil-induced inflammation; parameters: method as in PMID 23504664; Leukocytes (L, leukocytes count):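 lower leukocyte count means stronger anti-inflammatory effect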; settings: cited from earlier work; for Leukocytes (L, leukocytes count) / PMN (polymorphonuclear leukocytes, differential leucocyte count): mean ± SD
[2] = Lipophilicity by reversed-phase thin-layer chromatography (RP-TLC), isopropanol-water mobile phase; format: physicochemical; settings: RP-18F254s TLC, iso-propanol-water 45-65% (v/v); for RM0 (lipophilicity estimation parameter, intercept of RM = RM0 + bC): extrapolated to pure water
Protocol: Some of the parameters resulting from a RP-TLC may be associated to the lipophilic character of the analytes. The retention parameters (RM) are calculated by means of well-known Batte-Smith and Westall Equation (1): RM = log (1/RF − 1) (1)
Generally, the RM values determined by RP-TLC are linearly dependent on the concentration of the organic modifier (C) in the mobile phase Equation (2): RM = RM0 + bC (2) where b and RM0 are, respectively, the slope and the intercept of Equation (2). […] Additionally, it has been stated that not only the RM0, but also the slope, b, as a characteristic of the specific hydrophobic surface area of the compounds, can be used as an estimation of lipophilicity. The advantages of TLC methods consist in the small quantity of compounds needed for the determination, and the rapidity and simplicity of the method. Also, they are inexpensive, rapid and easy to perform.
Chromatography was performed on 20 × 20 cm RP-18F254s TLC precoated silica plates (Merck; Darmstadt, Germany). Solutions (1 mg/mL) of the tested compounds were prepared in iso-propanol, and 3 μL aliquots were spotted in duplicate on the plates by hand, 10 mm from the bottom edge and 20 mm apart. The mobile phases were composed of the iso-propanol-water binary mixtures, with a varying content of organic modifier between 45% and 65% (v/v) in 5% increments, as the study compounds differed considerably in their retention. Chromatography was performed in a normal developing chamber at room temperature, the developing distance being 10 cm. The chromatography chamber was saturated with the mobile phase for 30 min before use. After the development (30–60 min), the plates were air dried at room temperature and examined under a UV lamp (λ = 254 nm), and the RF (retardation factor) values were measured manually by a digital caliper. The experiments were performed in triplicate.

phagocytes = tested on: phagocytes; parameters: method as in PMID 23504664; settings: turpentine oil-induced inflammation, mean ± SD; cited from earlier work
[3] = tested on: nitric oxide (NO) synthesis; parameters: method as in PMID 23504664; unit not given here; settings: turpentine oil-induced inflammation, mean ± SD; cited from earlier work
oxidative stress = tested on: oxidative stress; parameters: method as in PMID 23504664; settings: turpentine oil-induced inflammation, mean ± SD; cited from earlier work

Row | SMILES | b (slope of RM = RM0 + bC, specific hydrophobic surface area) [2] | RM0 (lipophilicity estimation parameter, intercept of RM = RM0 + bC) [2] | Leukocytes (L, leukocytes count) [1] | PMN (polymorphonuclear leukocytes, differential leucocyte count) [1] [%] | PA (phagocytic activity) (phagocytes) | PI (phagocytosis index) (phagocytes) [%] | NO (nitric oxide synthesis) [3] | OSI (oxidative stress index) (oxidative stress) | TAR (total antioxidant response) (oxidative stress) | TOS (total oxidative status) (oxidative stress) | anti-inflammatory and antioxidant effects (in words) ([1]; overall ranking within the series)
1 | Cc1nc(-c2ccccc2)sc1-c1nnc(S)o1 [Th-18] | −1.840 | 0.540 | 4575 ± 805 | 63.7 ± 2.4 | 56 ± 8.6 | 17 ± 1.9 | 43.23 ± 3.9 | 6.98 ± 4.1 | 1.118 ± 0.006 | 78.089 ± 14.1 | –
2 | Cc1ccc(-c2nc(C)c(-c3nnc(S)o3)s2)cc1 [Th-19] | −1.134 | 0.286 | 7443.75 ± 1172 | 72.8 ± 5.0 | 13.5 ± 2.78 | 20 ± 1.5 | 45.198 ± 2.2 | 7.13 ± 5.9 | 1.119 ± 0.009 | 79.849 ± 12 | –
3 | Cc1nc(-c2ccccc2)sc1-c1nnc(S)s1 [Th-21] | −1.286 | 0.620 | 3000 ± 241 | 52.6 ± 2.1 | 23 ± 1.9 | 14.5 ± 4.6 | 43.737 ± 6.2 | 6.03 ± 4.5 | 1.114 ± 0.007 | 67.137 ± 10.6 | best anti-inflammatory and antioxidant effects
4 | Cc1ccc(-c2nc(C)c(-c3nnc(S)s3)s2)cc1 [Th-22] | −1.227 | 0.701 | 5812.5 ± 399 | 66.4 ± 0.8 | 23.5 ± 0.9 | 35 ± 8.2 | 52.08 ± 8.1 | 5.13 ± 4.9 | 1.105 ± 0.001 | 56.694 ± 7.9 | –

Continued, in another order:

Row | b (slope of RM = RM0 + bC, specific hydrophobic surface area) [2] | RM0 (lipophilicity estimation parameter, intercept of RM = RM0 + bC) [2] | SMILES | Leukocytes (L, leukocytes count) [1] | PMN (polymorphonuclear leukocytes, differential leucocyte count) [1] [%] | PA (phagocytic activity) (phagocytes) | PI (phagocytosis index) (phagocytes) [%] | NO (nitric oxide synthesis) [3] | OSI (oxidative stress index) (oxidative stress) | TAR (total antioxidant response) (oxidative stress) | TOS (total oxidative status) (oxidative stress) | anti-inflammatory and antioxidant effects (in words) ([1]; overall ranking within the series)
5 | −2.962 | 1.783 | C=CCn1c(S)nnc1-c1sc(-c2ccc(C)cc2)nc1C [Th-16] | 9225 ± 333 | 77.4 ± 1.9 | 27 ± 1.1 | 21.2 ± 1.0 | 63.091 ± 5.1 | 6.04 ± 4.1 | 1.103 ± 0.009 | 66.681 ± 9.1 | –
6 | −4.737 | 2.808 | C=CCn1c(S)nnc1-c1sc(-c2ccc(Br)cc2)nc1C [Th-17] | 10,147.5 ± 528 | 75.4 ± 5.2 | 19.5 ± 0.9 | 15 ± 3.5 | 60.479 ± 11.8 | 6.38 ± 5.2 | 1.093 ± 0.003 | 69.962 ± 5.2 | –
7 | −1.283 | 0.393 | Cc1nc(-c2ccc(Br)cc2)sc1-c1nnc(S)o1 [Th-20] | 4837.5 ± 1305 | 59.2 ± 5.6 | 20 ± 1.5 | 16 ± 3.0 | 43.288 ± 5.0 | 7.32 ± 3.2 | 1.106 ± 0.003 | 81.022 ± 13.2 | –
